Results published in ChEMBL document CHEMBL1201862, “PubChem BioAssay data set” (2004).
Activity calls are given as the source filed them.

What was measured:
[1] = HGIII-sPLA2 enzyme inhibition potency – biochemical, QFRET, IC50, dose response (AID 743457);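 note: green fluorescence rise as the enzyme cleaves BODIPY PC-A2 in liposomes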
[2] = biological target: T1, Oxysterols receptor LXR-beta (Homo sapiens, UniProt P55055); assay type: functional, cell-based
T1 sequence (P55055 whole entry): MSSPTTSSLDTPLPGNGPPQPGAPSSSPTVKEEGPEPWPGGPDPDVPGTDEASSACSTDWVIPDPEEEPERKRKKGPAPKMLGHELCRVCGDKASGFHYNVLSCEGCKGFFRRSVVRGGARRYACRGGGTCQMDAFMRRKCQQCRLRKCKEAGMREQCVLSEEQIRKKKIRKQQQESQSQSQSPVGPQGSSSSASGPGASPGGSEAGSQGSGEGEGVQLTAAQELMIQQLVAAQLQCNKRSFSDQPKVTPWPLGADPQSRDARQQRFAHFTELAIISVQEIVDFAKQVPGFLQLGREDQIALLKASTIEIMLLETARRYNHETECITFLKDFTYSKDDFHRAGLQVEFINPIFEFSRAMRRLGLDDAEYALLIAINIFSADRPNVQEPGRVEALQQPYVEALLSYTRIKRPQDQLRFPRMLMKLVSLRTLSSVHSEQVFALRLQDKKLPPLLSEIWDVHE

[3] = general mammalian cell viability loss – inhibitor set, cherry-pick, set 2, cytotoxicity control for miR-122 modulator project, dose response (AID 720697); assay type: functional, cell-based
[4] = cells
[5] = biological target: T1, Oxysterols receptor LXR-beta; assay type: functional, cell-based; remark: listed apart in the source
[6] = biological target: T2, Protein skinhead-1 (Caenorhabditis elegans, UniProt P34707); assay type: functional
T2 sequence (P34707 whole entry): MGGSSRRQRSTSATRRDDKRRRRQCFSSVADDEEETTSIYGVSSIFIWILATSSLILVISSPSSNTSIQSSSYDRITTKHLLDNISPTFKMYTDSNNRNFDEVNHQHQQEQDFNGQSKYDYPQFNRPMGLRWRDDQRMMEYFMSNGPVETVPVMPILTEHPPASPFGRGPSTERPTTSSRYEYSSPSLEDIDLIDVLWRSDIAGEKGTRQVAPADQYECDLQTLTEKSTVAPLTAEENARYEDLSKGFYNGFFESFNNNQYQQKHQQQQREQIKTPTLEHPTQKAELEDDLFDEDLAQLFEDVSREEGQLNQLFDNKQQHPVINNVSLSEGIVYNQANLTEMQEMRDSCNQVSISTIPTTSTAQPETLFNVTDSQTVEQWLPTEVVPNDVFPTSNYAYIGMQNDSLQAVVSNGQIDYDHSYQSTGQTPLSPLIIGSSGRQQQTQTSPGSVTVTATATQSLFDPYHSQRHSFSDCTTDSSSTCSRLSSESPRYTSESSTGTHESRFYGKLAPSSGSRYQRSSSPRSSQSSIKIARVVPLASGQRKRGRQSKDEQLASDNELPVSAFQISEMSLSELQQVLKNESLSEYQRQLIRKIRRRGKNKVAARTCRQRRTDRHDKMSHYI

[7] = viability loss in HepG2 hepatoma cells – cell-based, ATP luminescence, cherry-pick, activator set 2, cytotoxicity control, dose response (AID 1053143); assay type: functional
[8] = biological target: T3, Mannose-6-phosphate isomerase (Homo sapiens, UniProt P34949); assay: MPI enzyme activity inhibition – biochemical, fluorescence intensity, coupled assay, primary screen (AID 1209)
T3 sequence (P34949 whole entry): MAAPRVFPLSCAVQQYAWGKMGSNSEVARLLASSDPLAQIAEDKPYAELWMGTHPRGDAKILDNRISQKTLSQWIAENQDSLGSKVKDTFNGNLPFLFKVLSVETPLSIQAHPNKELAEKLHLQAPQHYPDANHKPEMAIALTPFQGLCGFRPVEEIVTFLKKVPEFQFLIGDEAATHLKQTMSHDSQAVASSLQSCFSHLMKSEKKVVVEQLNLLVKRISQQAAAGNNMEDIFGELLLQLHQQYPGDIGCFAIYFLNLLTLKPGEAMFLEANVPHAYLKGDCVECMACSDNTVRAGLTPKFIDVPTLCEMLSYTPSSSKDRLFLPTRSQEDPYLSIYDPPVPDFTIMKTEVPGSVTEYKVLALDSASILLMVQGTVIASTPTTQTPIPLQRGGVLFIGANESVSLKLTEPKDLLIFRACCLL

[9] = biological target: T4, Histone-lysine N-methyltransferase NSD2 (Homo sapiens, UniProt O96028); assay type: biochemical
T4 sequence (O96028 whole entry): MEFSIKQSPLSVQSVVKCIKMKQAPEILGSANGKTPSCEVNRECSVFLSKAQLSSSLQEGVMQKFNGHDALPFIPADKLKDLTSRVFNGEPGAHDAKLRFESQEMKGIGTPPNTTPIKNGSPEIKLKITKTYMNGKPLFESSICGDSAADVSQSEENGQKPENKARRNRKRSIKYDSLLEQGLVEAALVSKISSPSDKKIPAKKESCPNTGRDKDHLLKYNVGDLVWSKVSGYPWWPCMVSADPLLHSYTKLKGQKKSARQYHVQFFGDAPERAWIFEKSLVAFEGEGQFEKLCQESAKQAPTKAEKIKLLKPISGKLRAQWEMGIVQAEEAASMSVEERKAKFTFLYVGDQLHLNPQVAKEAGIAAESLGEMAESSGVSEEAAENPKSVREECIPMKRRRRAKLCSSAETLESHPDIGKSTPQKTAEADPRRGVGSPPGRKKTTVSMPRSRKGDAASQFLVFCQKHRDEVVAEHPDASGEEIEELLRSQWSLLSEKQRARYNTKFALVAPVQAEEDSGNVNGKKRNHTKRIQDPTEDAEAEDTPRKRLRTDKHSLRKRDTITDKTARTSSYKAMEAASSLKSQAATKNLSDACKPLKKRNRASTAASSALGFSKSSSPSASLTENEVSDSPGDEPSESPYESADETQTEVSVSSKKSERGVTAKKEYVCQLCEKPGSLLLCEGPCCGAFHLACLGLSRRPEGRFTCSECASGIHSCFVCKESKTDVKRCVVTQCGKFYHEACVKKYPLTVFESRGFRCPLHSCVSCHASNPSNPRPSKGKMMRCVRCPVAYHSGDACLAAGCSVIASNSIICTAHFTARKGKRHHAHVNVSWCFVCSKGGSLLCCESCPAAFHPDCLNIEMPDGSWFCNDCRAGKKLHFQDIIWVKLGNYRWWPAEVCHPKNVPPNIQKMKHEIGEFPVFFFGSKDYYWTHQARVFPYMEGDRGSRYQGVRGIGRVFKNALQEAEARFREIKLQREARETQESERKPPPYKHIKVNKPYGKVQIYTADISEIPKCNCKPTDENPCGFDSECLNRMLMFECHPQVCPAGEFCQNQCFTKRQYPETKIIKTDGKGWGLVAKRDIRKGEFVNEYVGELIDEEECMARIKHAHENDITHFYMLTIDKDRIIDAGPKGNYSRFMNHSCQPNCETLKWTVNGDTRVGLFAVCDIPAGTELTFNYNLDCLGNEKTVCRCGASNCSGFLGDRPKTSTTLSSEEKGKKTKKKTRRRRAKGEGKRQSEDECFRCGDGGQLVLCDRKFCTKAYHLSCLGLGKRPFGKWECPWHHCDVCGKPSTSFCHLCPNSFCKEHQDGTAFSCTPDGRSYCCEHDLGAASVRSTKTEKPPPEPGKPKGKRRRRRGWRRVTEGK

[10] = biological target: T3, Mannose-6-phosphate isomerase; assay: MPI inhibition at elevated mannose 6-phosphate – biochemical, fluorescence intensity, high mannose 6-phosphate, primary screen (AID 1220)
[11] = biological target: T5, Rac GTPase-activating protein 1 (Homo sapiens, UniProt Q9H0H5); assay: blockers of MgcRacGAP-driven Rac1 GTP hydrolysis – biochemical, ADP Hunter fluorescence, primary and confirmatory, confirmation (AID 624330); assay type: functional
T5 sequence (Q9H0H5 whole entry): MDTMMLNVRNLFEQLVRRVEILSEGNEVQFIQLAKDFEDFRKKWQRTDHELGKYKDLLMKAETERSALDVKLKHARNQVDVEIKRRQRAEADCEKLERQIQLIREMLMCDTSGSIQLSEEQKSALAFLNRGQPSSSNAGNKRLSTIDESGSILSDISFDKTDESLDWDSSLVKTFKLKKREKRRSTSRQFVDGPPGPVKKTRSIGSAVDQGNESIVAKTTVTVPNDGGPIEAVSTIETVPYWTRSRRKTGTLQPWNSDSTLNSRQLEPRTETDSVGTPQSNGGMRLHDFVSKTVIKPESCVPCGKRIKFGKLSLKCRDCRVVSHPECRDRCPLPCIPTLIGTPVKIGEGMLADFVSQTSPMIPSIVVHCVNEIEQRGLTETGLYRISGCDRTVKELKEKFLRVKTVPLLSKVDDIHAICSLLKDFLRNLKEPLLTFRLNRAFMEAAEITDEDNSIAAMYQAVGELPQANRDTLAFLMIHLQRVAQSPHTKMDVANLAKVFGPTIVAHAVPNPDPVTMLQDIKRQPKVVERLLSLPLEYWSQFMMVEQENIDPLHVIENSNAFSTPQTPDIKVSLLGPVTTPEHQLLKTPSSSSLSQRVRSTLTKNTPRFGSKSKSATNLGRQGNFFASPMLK

[12] = general mammalian cell viability loss – activator set, cherry-pick, cytotoxicity control for miR-122 modulator project, dose response (AID 720690); assay type: functional, cell-based;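 note: HEK293T human cells scored for general mammalian cytotoxicity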
[13] = blockers of HIV-1 ZM109 envelope-driven cell-cell fusion – HeLa effector, CEM target cells, luciferase, cherry-pick, dose response (AID 652058); assay type: functional, cell-based;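 note: luciferase signal from HIV-1 Env mediated cell-cell fusion of effector and target cells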
[14] = HIV-1 AD8 envelope cell-cell fusion blockers – cherry-pick, dose response (AID 652062); assay type: functional, cell-based;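 note: luciferase signal from cell-cell fusion driven by HIV-1 clade B AD8 Env; potency is for inhibitors of fusion seen as a drop in luminescence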
[15] = A549 cell cytotoxicity, dose response, cytotoxicity control, plate reader, cherry-pick, antagonist series (AID 743412); assay type: functional, cell-based
[16] = off-target signal loss in HeLa-CEM21 co-culture – HeLa F-luc CTL cells, cherry-picked, counter-screen for HIV-1 Env fusion inhibitor project, dose response (AID 652040); assay type: functional, cell-based;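 note: potency for signal decrease marking cytotoxic or nonspecific inhibition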
[17] = blockers of bursicon-stimulated LGR2 cAMP reporter – cell-based, HEK293, CRE-luciferase reporter, cherry pick, set 2, dose response (AID 743343); assay type: functional;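 note: transfected cells were stimulated with diluted bursicon conditioned medium after compound addition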
[18] = biological target: Paired box protein Pax-8 (Homo sapiens, UniProt Q06710); assay: PAX8 transcriptional activity inhibition in RMG-I – RMG-I cells, luciferase, cherry-pick, dose response (AID 687027); assay type: functional, cell-based;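 note: luciferase reporter driven by Pax8 target thyroperoxidase promoter measured by SteadyGlo luminescence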
[19] = blockers of HIV-1 envelope-mediated cell-cell fusion – cherry-pick, dose response (AID 652057); assay type: functional, cell-based
[20] = blockade of melanocortin 4 receptor signaling – cell-based, plate reader, cherry pick, counter-screen for LGR2 antagonist project, dose response (AID 743444); assay type: functional;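 note: transfected HEK 293 cells stimulated with alpha-MSH peptide; potency of inhibitors of the alpha-MSH evoked signal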
[21] = biological target: T6, RNA-editing ligase 1, mitochondrial (Trypanosoma brucei brucei, UniProt P86926); assay: inhibition of trypanosome RNA editing ligase – biochemical, fluorescence, Trypanosoma brucei, dose response (AID 1117295); assay type: functional
T6 sequence (P86926 whole entry): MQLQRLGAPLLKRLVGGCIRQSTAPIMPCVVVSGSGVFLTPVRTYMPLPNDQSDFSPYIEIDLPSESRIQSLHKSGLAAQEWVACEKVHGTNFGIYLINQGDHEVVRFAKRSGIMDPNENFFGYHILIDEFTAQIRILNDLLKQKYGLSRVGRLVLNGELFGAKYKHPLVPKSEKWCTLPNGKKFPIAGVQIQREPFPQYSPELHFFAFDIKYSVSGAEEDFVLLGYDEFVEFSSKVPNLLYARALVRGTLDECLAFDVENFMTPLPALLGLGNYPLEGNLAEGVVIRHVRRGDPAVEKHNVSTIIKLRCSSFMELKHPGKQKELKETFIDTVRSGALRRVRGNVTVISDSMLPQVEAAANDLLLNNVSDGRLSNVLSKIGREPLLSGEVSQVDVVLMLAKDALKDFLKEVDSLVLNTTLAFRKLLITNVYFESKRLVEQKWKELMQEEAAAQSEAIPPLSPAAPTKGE

Chain of Paired box protein Pax-8 (Q06710 whole entry, the tested form may be a part): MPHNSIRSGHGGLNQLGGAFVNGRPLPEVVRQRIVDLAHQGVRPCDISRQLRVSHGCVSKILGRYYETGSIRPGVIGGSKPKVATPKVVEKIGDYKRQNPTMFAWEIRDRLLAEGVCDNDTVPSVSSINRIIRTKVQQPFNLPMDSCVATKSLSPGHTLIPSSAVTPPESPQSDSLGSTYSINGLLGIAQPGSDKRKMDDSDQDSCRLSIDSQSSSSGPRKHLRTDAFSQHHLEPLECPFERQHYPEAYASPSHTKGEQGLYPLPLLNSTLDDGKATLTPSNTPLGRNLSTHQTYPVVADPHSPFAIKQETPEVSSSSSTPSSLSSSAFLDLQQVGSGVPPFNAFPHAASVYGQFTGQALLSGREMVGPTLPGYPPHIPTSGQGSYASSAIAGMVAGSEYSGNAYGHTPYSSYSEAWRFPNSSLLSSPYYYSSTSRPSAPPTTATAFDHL

O=C(NNC(=S)Nc1ccc(Br)cc1)c1cccnc1
IC50 [1]: > 122 µM (inactive)

COC(=O)c1sc2nc3c(cc2c1N)CCCC3
EC50 [2]: > 67.5 µM (inactive)

COc1ccc(CC(NC(C)=O)C(=O)N2CCN(C(=O)N(C(C)C)C(C)C)CC2)cc1 (configuration not stated)
AC50 [3]: 0.834 µM (active)

Fc1cccc(F)c1/C=C/c1ccc2ccccc2n1
EC50 [4]: > 67.5 µM (inactive) | EC50 [5]: > 67.5 µM (inactive) | IC50 [6]: 36.8 µM (active)

CC(=O)CC1(O)C(=O)N(Cc2ccccc2)c2ccccc21 (configuration not stated)
AC50 [7]: > 52 µM (inactive)

CN(Cc1c(O)ccc2c1oc(=O)c1ccccc12)C1CCCCC1
IC50 [8]: 5.12 µM (active) | AC50 [9]: 4.96 µM (active) | IC50 [10]: 7.13 µM (active)

Cc1ccc(C(=O)Nc2ncc(Cc3ccc(F)cc3)s2)o1
AC50 [7]: 12 µM (active)

Cc1ccc(-c2nnc(NC3CCCC3)s2)cc1
EC50 [2]: > 67.6 µM (inactive)

CCN(CC)c1ccc(/C=N/NC(=S)NC)c(O)c1
IC50 [11]: 58.2 µM (active) | IC50 [1]: > 122 µM (inactive)

CNC[C@H]1Oc2cc(C#CC3CCCC3)ccc2S(=O)(=O)N([C@H](C)CO)C[C@H]1C
AC50 [12]: 30.9 µM (active)

COCCN(C[C@@H]1[C@@H](c2ccccc2)[C@H](CO)N1C(=O)C1CC1)C(C)=O
AC50 [3]: 0.502 µM (active)

CN(C)c1cccc(-c2cnc(N3CCC(C(N)=O)CC3)s2)c1
EC50 [2]: > 67.5 µM (inactive)

Cc1ccsc1/C=N/Nc1cccc(C(=O)O)c1
AC50 [13]: 7.12 µM (active) | AC50 [14]: 2.65 µM (active) | IC50 [11]: 92.5 µM (active) | AC50 [15]: > 52 µM (inactive) | EC50 [4]: > 67.5 µM (inactive) | AC50 [16]: 2.45 µM (active) | AC50 [17]: 1.3 µM (active) | EC50 [5]: > 67.5 µM (inactive) | AC50 [18]: 4.41 µM (active) | AC50 [19]: 1.32 µM (active) | AC50 [20]: 1.14 µM (active)

C/C(=N/N=C(/C)c1cccs1)c1cccs1
EC50 [4]: > 67.6 µM (inactive) | EC50 [5]: > 67.6 µM (inactive)

COC(=O)C1=C(C)N(Cc2cccc(C(F)(F)F)c2)C(NCc2cc(OC)c(OC)c(OC)c2)=NC1CCc1ccccc1 (configuration not stated)
IC50 [21]: > 96.6 µM (inactive)

CNCCCC12CCC(c3ccccc31)c1ccccc12 [MAPROTILINE]
AC50 [9]: > 20 µM (inactive)
